PubChem BioAssay AID328 (DTP/NCI, 2004)
Values joined by “and” are separate entries in the source; they are usually repeats but may differ in a detail not shown here. Equal entries are not always repeated. Toxic doses and inconclusive results are not listed.

Test system: BDF1 mice, P388 leukemia ip, median survival T/C
Test: NCI In Vivo Anticancer Drug Screen. Data for tumor model P388 Leukemia (intraperitoneal) in B6D2F1 (BDF1) mice
Conditions: endpoint: median survival time, higher = longer survival
Method in brief: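 Each value expresses how treatment altered survival: treated-mouse outcome over vehicle-mouse outcome, both groups bearing the transplanted tumour.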

[1] = dose: 100.0 mg/kg/injection, schedule: Q04DX003 (ip), vehicle: Klucel (hydroxypropylcellulose) (HPC)
[2] = dose: 200.0 mg/kg/injection, schedule: Q04DX003 (ip), vehicle: Klucel (hydroxypropylcellulose) (HPC)
[3] = dose: 400.0 mg/kg/injection, schedule: Q04DX003 (ip), vehicle: Klucel (hydroxypropylcellulose) (HPC)
[4] = dose: 12.5 mg/kg/injection, schedule: Q01DX009 (ip), vehicle: saline with Tween-80
[5] = dose: 25.0 mg/kg/injection, schedule: Q01DX009 (ip), vehicle: saline with Tween-80
[6] = dose: 50.0 mg/kg/injection, schedule: Q01DX009 (ip), vehicle: saline with Tween-80
[7] = dose: 100.0 mg/kg/injection, schedule: Q01DX009 (ip), vehicle: saline with Tween-80
[8] = dose: 100.0 mg/kg/injection, schedule: Q04DX003 (ip), vehicle: saline with Tween-80
[9] = dose: 200.0 mg/kg/injection, schedule: Q04DX003 (ip), vehicle: saline with Tween-80
[10] = dose: 400.0 mg/kg/injection, schedule: Q04DX003 (ip), vehicle: saline with Tween-80
[11] = dose: 200.0 mg/kg/injection, schedule: Q01DX009 (ip), vehicle: saline with Tween-80
[12] = dose: 400.0 mg/kg/injection, schedule: Q01DX009 (ip), vehicle: saline with Tween-80
[13] = dose: 6.25 mg/kg/injection, schedule: Q04DX003 (ip), vehicle: saline
[14] = dose: 25.0 mg/kg/injection, schedule: Q04DX003 (ip), vehicle: saline

CCN(CC)C1=C(N(CC)CC)C(N(CC)CC)=C(N(CC)CC)C1=O.[C-]#[O+].[C-]#[O+].[C-]#[O+].[Fe]
T/C [1]: 101 % of control
T/C [2]: 91 % of control
T/C [3]: 115 % of control

O=[N+]([O-])c1cccc2c[n+](Cc3ccccc3)ccc12
T/C [4]: 117 % of control

CC(C)CSc1ncnc2nc[nH]c12
T/C [5]: 90 % of control
T/C [6]: 100 % of control
T/C [7]: 104 % of control and 122 % of control
T/C [8]: 104 % of control
T/C [9]: 86 % of control
T/C [10]: 86 % of control

C=CCN1C=CC=C/C1=C\C=C(/C#N)C(=O)OCC
T/C [6]: 99 % of control
T/C [7]: 90 % of control
T/C [11]: 103 % of control

COC(OC)c1cc(=O)[nH]c(=S)n1Cl
T/C [1]: 100 % of control
T/C [2]: 104 % of control
T/C [3]: 100 % of control

CC1CC2C(CC1O)C2(C)C (configuration not stated)
T/C [4]: 100 % of control
T/C [5]: 95 % of control
T/C [6]: 109 % of control
T/C (dose: 100.0 mg/kg/injection, schedule: Q04DX003 (ip), vehicle: saline sonified): 111 % of control
T/C (dose: 200.0 mg/kg/injection, schedule: Q04DX003 (ip), vehicle: saline sonified): 111 % of control
T/C (dose: 400.0 mg/kg/injection, schedule: Q04DX003 (ip), vehicle: saline sonified): 100 % of control

C=C(C)c1ccc(C)c(C)c1
T/C [7]: 106 % of control
T/C [12]: 122 % of control

NC(=O)c1ccc(N)nc1
T/C [13]: 121 % of control
T/C (dose: 8.33 mg/kg/injection, schedule: Q04DX003 (ip), vehicle: saline with Tween-80): 100 % of control
T/C (dose: 12.5 mg/kg/injection, schedule: Q04DX003 (ip), vehicle: saline with Tween-80): 100 % of control
T/C (dose: 18.75 mg/kg/injection, schedule: Q04DX003 (ip), vehicle: saline with Tween-80): 105 % of control and 108 % of control
T/C [14]: 114 % of control

CCOC(=O)c1cc2sccc2[nH]1
T/C [7]: 103 % of control
T/C [8]: 104 % of control
T/C [11]: 100 % of control
T/C [9]: 109 % of control
T/C [12]: 115 % of control
T/C [10]: 113 % of control

N#CC(C#N)=Cc1ccc(C=C(C#N)C#N)cc1
T/C (dose: 12.5 mg/kg/injection, schedule: Q01DX009 (ip), vehicle: Klucel (hydroxypropylcellulose) (HPC)): 100 % of control
T/C (dose: 25.0 mg/kg/injection, schedule: Q01DX009 (ip), vehicle: Klucel (hydroxypropylcellulose) (HPC)): 95 % of control
T/C (dose: 50.0 mg/kg/injection, schedule: Q01DX009 (ip), vehicle: Klucel (hydroxypropylcellulose) (HPC)): 90 % of control
T/C [1]: 100 % of control
T/C [2]: 104 % of control
T/C [3]: 121 % of control

O=P1(NCCCl)OCCCN1CCCl (configuration not stated)
T/C (dose: 0.8 mg/kg/injection, schedule: Q01DX010 (ip), vehicle: saline): 105 % of control
T/C (dose: 1.5 mg/kg/injection, schedule: Q01DX010 (ip), vehicle: saline): 100 % of control
T/C (dose: 3.0 mg/kg/injection, schedule: Q01DX010 (ip), vehicle: saline): 110 % of control
T/C (dose: 3.12 mg/kg/injection, schedule: Q01DX009 (ip), vehicle: saline): 99 % of control
T/C (dose: 6.0 mg/kg/injection, schedule: Q01DX010 (ip), vehicle: saline): 110 % of control
T/C (dose: 6.25 mg/kg/injection, schedule: Q01DX009 (ip), vehicle: saline): 107 % of control and 115 % of control
T/C (dose: 12.5 mg/kg/injection, schedule: Q01DX009 (ip), vehicle: saline): 173 % of control
T/C (dose: 12.5 mg/kg/injection, schedule: Q01DX010 (ip), vehicle: saline): 177 % of control
T/C (dose: 25.0 mg/kg/injection, schedule: Q01DX009 (ip), vehicle: saline): 166 % of control and 196 % of control
T/C (dose: 25.0 mg/kg/injection, schedule: Q01DX009 (ip), vehicle: water): 156 % of control
T/C (dose: 25.0 mg/kg/injection, schedule: Q01DX010 (ip), vehicle: saline): 216 % of control
T/C (dose: 50.0 mg/kg/injection, schedule: Q01DX009 (ip), vehicle: saline): 121 % of control
T/C (dose: 50.0 mg/kg/injection, schedule: Q01DX009 (ip), vehicle: water): 241 % of control
T/C (dose: 50.0 mg/kg/injection, schedule: Q01DX010 (ip), vehicle: saline): 200 % of control
T/C (dose: 100.0 mg/kg/injection, schedule: Q01DX009 (ip), vehicle: saline): 105 % of control
T/C (dose: 100.0 mg/kg/injection, schedule: Q01DX010 (ip), vehicle: saline): 300 % of control
T/C (dose: 200.0 mg/kg/injection, schedule: Q01DX009 (ip), vehicle: saline): 87 % of control
T/C (dose: 200.0 mg/kg/injection, schedule: Q01DX009 (ip), vehicle: water): 98 % of control
T/C (dose: 200.0 mg/kg/injection, schedule: Q01DX010 (ip), vehicle: saline): 105 % of control

O=P(OCc1ccccc1)(N(CCCl)CCCl)N1CCN(P(=O)(OCc2ccccc2)N(CCCl)CCCl)CC1 (configuration not stated)
T/C (dose: 132.0 mg/kg/injection, schedule: Q04DX003 (ip), vehicle: saline with Tween-80): 172 % of control
T/C [9]: 154 % of control and 172 % of control

C=C1C(=O)O[C@@H]2CC(CO)=C([C@@H](C)CCCO)[C@@H](OC(=O)/C(C)=C\C)[C@H]12
T/C (dose: 2.0 mg/kg/injection, schedule: Q01DX009 (ip), vehicle: saline + alcohol): 123 % of control
T/C (dose: 4.0 mg/kg/injection, schedule: Q01DX009 (ip), vehicle: saline + alcohol): 104 % of control
T/C (dose: 8.0 mg/kg/injection, schedule: Q01DX009 (ip), vehicle: saline + alcohol): 123 % of control
T/C (dose: 16.0 mg/kg/injection, schedule: Q01DX009 (ip), vehicle: saline + alcohol): 114 % of control

COc1ccc(-c2c(C)c(C)[nH]c(=O)c2C(=O)O)c(OCc2ccccc2)c1OC
T/C [7]: 99 % of control
T/C [8]: 110 % of control
T/C [11]: 105 % of control
T/C [9]: 103 % of control
T/C [12]: 103 % of control
T/C [10]: 117 % of control

ClCC[N+]12CC[N+](CCCl)(CC1)C2
T/C [4]: 103 % of control
T/C [5]: 118 % of control and 116 % of control
T/C (dose: 25.0 mg/kg/injection, schedule: Q04DX003 (ip), vehicle: saline with Tween-80): 108 % of control
T/C (dose: 50.0 mg/kg/injection, schedule: Q04DX003 (ip), vehicle: saline with Tween-80): 93 % of control and 108 % of control
T/C (dose: 50.0 mg/kg/injection, schedule: Q04DX003 (ip), vehicle: saline): 103 % of control
T/C [7]: 150 % of control and 206 % of control and 168 % of control
T/C [8]: 171 % of control
T/C (dose: 100.0 mg/kg/injection, schedule: Q04DX003 (ip), vehicle: saline): 122 % of control
T/C (dose: 200.0 mg/kg/injection, schedule: Q04DX003 (ip), vehicle: saline): 165 % of control
T/C (dose: 264.0 mg/kg/injection, schedule: Q04DX003 (ip), vehicle: saline with Tween-80): 200 % of control
T/C [12]: 112 % of control
T/C (dose: 400.0 mg/kg/injection, schedule: Q01DX009 (ip), vehicle: saline): 178 % of control
T/C [10]: 96 % of control
T/C (dose: 400.0 mg/kg/injection, schedule: Q04DX003 (ip), vehicle: saline): 244 % of control
T/C (dose: 600.0 mg/kg/injection, schedule: Q04DX003 (ip), vehicle: saline with Tween-80): 95 % of control

FC(F)(F)c1cccc(C=Nc2ccc(Oc3ccccc3)cc2)c1
T/C (dose: 50.0 mg/kg/injection, schedule: Q01DX009 (ip), vehicle: saline + alcohol): 97 % of control
T/C (dose: 100.0 mg/kg/injection, schedule: Q01DX009 (ip), vehicle: saline + alcohol): 91 % of control
T/C (dose: 200.0 mg/kg/injection, schedule: Q01DX009 (ip), vehicle: saline + alcohol): 100 % of control

OCCN1CCN(CC/C=C2\c3ccccc3COc3ccc(Cl)cc32)CC1
T/C [13]: 107 % of control
T/C [14]: 109 % of control
